Results: ChEMBL document CHEMBL4765389, “Antimicrobial and anti-inflammatory activities of short dodecapeptides derived from duck cathelicidin: Plausible mechanism of bactericidal action and endotoxin neutralization” (Eur J Med Chem, 2020)
Activity calls are given as the source filed them. The calls are words filed in the database; no cut-off is given here. Bridge positions count the residues as written; N and C are the ends. Square brackets hold non-standard residues; d marks the D form. Peptide text beside a SMILES is read from it. * marks the point of attachment. X1 = CC[C@H](C)CCCCC(=O)*; Dab = NCC[C@H](N)C(=O)O

Key:
Escherichia coli [1] = assay: Bacteriostatic activity against Escherichia coli KCTC 1682 assessed as reduction in colony forming unit at 0.5 times MIC measured for 24 hrs by time kill assay; type: functional
Escherichia coli [2] = assay: Bacteriostatic activity against Escherichia coli KCTC 1682 assessed as reduction in colony forming unit at 0.5 times MIC measured for 12 hrs by time kill assay; type: functional, organism-based
RAW264.7 [3] = assay: Antiinflammatory activity in mouse RAW264.7 cells assessed as neutralization of LPS binding by measuring LPS-FITC aggregation at 10 uM pretreated with LPS for 1 hr followed by compound addition and measured after 1 hr by flowcytometry analysis (reference value: 48.12 %); type: functional
Lipopolysaccharide (LPS) [4] = assay: Inhibition of Escherichia coli O111:B4 LPS aggregation assessed as increase in FITC-LPS dissociation at 100 uM by spectrofluorometry
RAW264.7 [5] = assay: Antiinflammatory activity in mouse RAW264.7 cells assessed as suppression of LPS binding by measuring LPS-FITC aggregation at 10 uM pretreated with LPS for 1 hr followed by compound addition and measured after 30 mins by flowcytometry analysis (reference value: 67.93 %); type: functional; conditions: 0.5 h
Bacillus subtilis = assay: Antibacterial activity against Bacillus subtilis KCTC 3068 assessed as reduction in bacterial growth incubated for 24 hrs by CLSI based broth dilution method; type: functional; conditions: read-out: MIC100
[6] = Cytotoxicity against mouse NIH/3T3 cells assessed as reduction in cell viability at 20 uM incubated for 24 hrs by MTT assay; type: cell-based, NIH3T3; conditions: NIH/3T3 cells, read-out: INH
[7] = Hemolytic activity in sheep RBC assessed as reduction in hemoglobin at 64 uM incubated for 1 hr; type: ADME, cell-based, Ovis aries, Erythrocyte; conditions: sheep red blood cells (erythrocytes), read-out: Activity
[8] = Retention time of the compound by RP-HPLC method; type: physicochemical
[9] = Antibacterial activity against multidrug-resistant Pseudomonas aeruginosa CCARM 2095 assessed as reduction in bacterial growth incubated for 24 hrs by CLSI based broth dilution method; type: functional; conditions: read-out: MIC100
Pseudomonas aeruginosa = assay: Antibacterial activity against Pseudomonas aeruginosa KCTC 1637 assessed as reduction in bacterial growth incubated for 24 hrs by CLSI based broth dilution method; type: functional; conditions: read-out: MIC100
[10] = Therapeutic index, ratio of HC10 for sheep RBC to geometric mean MIC for gram negative bacteria; type: toxicity; conditions: sheep red blood cells, read-out: TI
[11] = Therapeutic index, ratio of HC10 for sheep RBC to geometric mean MIC for gram positive bacteria; type: toxicity; conditions: sheep red blood cells, read-out: TI
Candida albicans [12] = assay: Antifungal activity against Candida albicans KCTC 7965 assessed as reduction in fungal growth incubated for 24 hrs by CLSI based broth dilution method; type: functional; conditions: read-out: MIC100
Saccharomyces cerevisiae = assay: Antifungal activity against yeast assessed as reduction in fungal growth incubated for 24 hrs by CLSI based broth dilution method; type: functional; conditions: read-out: MIC100
[13] = Cytotoxicity against mouse RAW264.7 cells assessed as reduction in cell viability at 20 uM incubated for 24 hrs by MTT assay; type: cell-based; conditions: read-out: INH
[14] = test system: Staphylococcus epidermidis; assay: Antibacterial activity against Staphylococcus epidermidis KCTC 1917 assessed as reduction in bacterial growth incubated for 24 hrs by CLSI based broth dilution method; type: functional; conditions: read-out: MIC100
Erythrocyte [15] = assay: Hemolytic activity in sheep RBC assessed as reduction in hemoglobin incubated for 1 hr; type: ADME, cell-based, Ovis aries
[16] = Cytotoxicity against mouse NIH/3T3 cells assessed as reduction in cell viability at 10 uM incubated for 24 hrs by MTT assay; type: cell-based, NIH3T3; conditions: read-out: INH
Staphylococcus aureus [17] = assay: Antibacterial activity against methicillin-resistant Staphylococcus aureus CCARM 3089 assessed as reduction in bacterial growth incubated for 24 hrs by CLSI based broth dilution method; type: functional; conditions: read-out: MIC100
Staphylococcus aureus [18] = assay: Antibacterial activity against methicillin-resistant Staphylococcus aureus CCARM 3090 assessed as reduction in bacterial growth incubated for 24 hrs by CLSI based broth dilution method; type: functional; conditions: read-out: MIC100
Staphylococcus aureus [19] = assay: Antibacterial activity against methicillin-resistant Staphylococcus aureus CCARM 3095 assessed as reduction in bacterial growth incubated for 24 hrs by CLSI based broth dilution method; type: functional; conditions: read-out: MIC100
Salmonella typhimurium = assay: Antibacterial activity against Salmonella typhimurium KCTC 1926 assessed as reduction in bacterial growth incubated for 24 hrs by CLSI based broth dilution method; type: functional, Salmonella enterica subsp. enterica serovar Typhimurium; conditions: Salmonella enterica, read-out: MIC100
Staphylococcus aureus [20] = assay: Antibacterial activity against Staphylococcus aureus KCTC 1621 assessed as reduction in bacterial growth incubated for 24 hrs by CLSI based broth dilution method; type: functional; conditions: read-out: MIC100
Escherichia coli [21] = assay: Antibacterial activity against Escherichia coli KCTC 1682 assessed as reduction in bacterial growth incubated for 24 hrs by CLSI based broth dilution method; type: functional; conditions: read-out: MIC100
Enterococcus faecium = assay: Antibacterial activity against vancomycin-resistant Enterococcus faecium ATCC 51559 assessed as reduction in bacterial growth incubated for 24 hrs by CLSI based broth dilution method; type: functional; conditions: read-out: MIC100
[22] = Antibacterial activity against multidrug-resistant Pseudomonas aeruginosa CCARM 2109 assessed as reduction in bacterial growth incubated for 24 hrs by CLSI based broth dilution method; type: functional; conditions: read-out: MIC100
[23] = Therapeutic index, ratio of HC10 for sheep RBC to geometric mean MIC for yeast; type: toxicity; conditions: sheep red blood cells, read-out: TI
Bacteria [24] = assay: Antibacterial activity against Gram positive bacteria assessed as reduction in bacterial growth incubated for 24 hrs by CLSI based broth dilution method; type: functional; conditions: read-out: MIC100
[25] = Cytotoxicity against mouse RAW264.7 cells assessed as reduction in cell viability at 10 uM incubated for 24 hrs by MTT assay; type: cell-based; conditions: read-out: INH
Erythrocyte [26] = assay: Hemolytic activity in sheep RBC assessed as reduction in hemoglobin at 256 uM incubated for 1 hr; type: ADME, cell-based, Ovis aries
Bacteria [27] = assay: Antibacterial activity against Gram negative bacteria assessed as reduction in bacterial growth incubated for 24 hrs by CLSI based broth dilution method; type: functional; conditions: read-out: MIC100
Candida albicans [28] = assay: Antifungal activity against Candida albicans KCTC 7121 assessed as reduction in fungal growth incubated for 24 hrs by CLSI based broth dilution method; type: functional; conditions: read-out: MIC100
Lipopolysaccharide (LPS) [29] = assay: Inhibition of Escherichia coli O111:B4 LPS aggregation assessed as increase in FITC-LPS dissociation at 2 uM by spectrofluorometry
RAW264.7 [30] = assay: Antiinflammatory activity against mouse RAW264.7 cells assessed as reduction in LPS-induced TNFalpha level at 10 uM incubated for 24 hrs by […] relative to control; type: functional
RAW264.7 [31] = assay: Antiinflammatory activity against mouse RAW264.7 cells assessed as reduction in LPS-induced nitrite level at 5 uM incubated for 24 hrs by Griess reagent based assay relative to control; type: functional

| Compound | MIC (Bacillus subtilis) | cytotoxicity at 24 h, 20 µM [6] | Retention_time [8] | MIC [9] | MIC (Pseudomonas aeruginosa) | selectivity ratio [10] | selectivity ratio [11] | MIC (Candida albicans [12]) | MIC (Saccharomyces cerevisiae) | cytotoxicity at 24 h, 20 µM [13] | MIC [14] | HC10 (Erythrocyte [15]) | MIC (Staphylococcus aureus [17]) | MIC (Staphylococcus aureus [18]) | MIC (Staphylococcus aureus [19]) | MIC (Salmonella typhimurium) | MIC (Staphylococcus aureus [20]) | MIC (Escherichia coli [21]) | MIC (Enterococcus faecium) | MIC [22] | further results |
| --- | --- | --- | --- | --- | --- | --- | --- | --- | --- | --- | --- | --- | --- | --- | --- | --- | --- | --- | --- | --- | --- |
| O=C(N[C@H](CO)[C@H](O)c1ccc([N+](=O)[O-])cc1)C(Cl)Cl | – | – | – | – | – | – | – | – | – | – | – | – | – | – | – | – | – | – | – | – | Activity (Escherichia coli [1]): inactive; Activity (Escherichia coli [2]): Active |
| CC[C@H](C)CCCCC(=O)N[C@@H](CCN)C(=O)N[C@H](C(=O)N[C@@H](CCN)C(=O)N[C@H]1CCNC(=O)[C@H]([C@@H](C)O)NC(=O)[C@H](CCN)NC(=O)[C@H](CCN)NC(=O)[C@H](CC(C)C)NC(=O)[C@@H](Cc2ccccc2)NC(=O)[C@H](CCN)NC1=O)[C@@H](C)O (X1-[Dab]T[Dab][Dab][Dab][dF]L[Dab][Dab]T; lactam 4-C) | – | – | – | – | – | – | – | – | – | – | – | – | – | – | – | – | – | – | – | – | Activity (RAW264.7 [3]): 43.62%; inhibition (Lipopolysaccharide (LPS) [4]): inactive; Activity (RAW264.7 [5]): 23.97% |
| H-FWQLVPLAIKIYRAWKRR-NH2 | 8 µM | < 10% | 29 min | 32 µM | 16 µM | 0.1 | 0.1 | 16 µM | 16 µM | < 10% | 16 µM | 1.3 µM | 32 µM | 16 µM | 32 µM | 8 µM | 8 µM | 16 µM | 32 µM | 32 µM | hemolysis at 1 h, 64 µM [7]: 100%; cytotoxicity at 24 h, 10 µM [16]: 40%; selectivity ratio [23]: 0.1; MIC (Bacteria [24]): 20.5 µM; cytotoxicity at 24 h, 10 µM [25]: 40%; Activity (Erythrocyte [26]): Non-Toxic; MIC (Bacteria [27]): 20.8 µM; MIC (Candida albicans [28]): 16 µM |
| H-KRFWQLVPLAIKIYRAWKRR-OH | 8 µM | < 10% | 26.8 min | 16 µM | 16 µM | 0.4 | 0.4 | 8 µM | 12 µM | < 10% | 8 µM | 5.1 µM | 16 µM | 16 µM | 8 µM | 4 µM | 8 µM | 8 µM | 16 µM | 16 µM | hemolysis at 1 h, 64 µM [7]: 40%; cytotoxicity at 24 h, 10 µM [16]: 40%; selectivity ratio [23]: 0.4; MIC (Bacteria [24]): 11.4 µM; cytotoxicity at 24 h, 10 µM [25]: 40%; Activity (Erythrocyte [26]): Non-Toxic; MIC (Bacteria [27]): 12 µM; MIC (Candida albicans [28]): 16 µM |
| H-LAIKIYRAWKRR-NH2 | 8 µM | < 10% | 16.4 min | 32 µM | 4 µM | 33.7 | 243 | 8 µM | 12 µM | < 10% | 4 µM | > 256 µM | 32 µM | 32 µM | 32 µM | 8 µM | 8 µM | 16 µM | 32 µM | 16 µM | Activity (RAW264.7 [3]): 42.35%; inhibition (Lipopolysaccharide (LPS) [29]): Active; inhibition at 10 µM (RAW264.7 [30]): < 10%; Activity (RAW264.7 [5]): 59.24%; selectivity ratio [23]: 42.7; MIC (Bacteria [24]): 21.1 µM; Activity (Erythrocyte [26]): Non-Toxic; MIC (Bacteria [27]): 15.2 µM; MIC (Candida albicans [28]): 16 µM; inhibition at 5 µM (RAW264.7 [31]): < 10% |
